Experimental data from ChEMBL document CHEMBL3045187, “Chemical weed control in seedbed sown onion (Allium cepa L.)” (Crop Prot, 2006).

Assays:
Malva sylvestris [1] = assay: Herbicidal activity against Malva sylvestris assessed as total fresh weight at 0.1 kg/ha applied as spray during post-emergence (reference value: 23.6 MT/ha); type: functional
Malva sylvestris [2] = assay: Herbicidal activity against Malva sylvestris assessed as total dry weight at 0.1 kg/ha applied as spray during post-emergence (reference value: 4.1 MT/ha); type: functional
Chenopodiastrum murale [3] = assay: Herbicidal activity against Chenopodium murale assessed as total dry weight at 0.1 kg/ha applied as spray during postemergence (reference value: 4.1 MT/ha); type: functional
Cyperus rotundus [4] = assay: Herbicidal activity against Cyperus rotundus assessed as total fresh weight at 0.1 kg/ha applied as spray during post-emergence (reference value: 23.6 MT/ha); type: functional
Cyperus rotundus [5] = assay: Herbicidal activity against Cyperus rotundus assessed as total dry weight at 0.1 kg/ha applied as spray during post-emergence (reference value: 4.1 MT/ha); type: functional
Chenopodiastrum murale [6] = assay: Herbicidal activity against Chenopodium murale assessed as total fresh weight at 0.1 kg/ha applied as spray during postemergence (reference value: 23.6 MT/ha); type: functional
Allium cepa [7] = assay: Phytotoxicity in Allium cepa (onion) seedling assessed as total fresh weight at 0.1 kg/ha applied as spray during postemergence (reference value: 7.71 MT/ha); type: organism-based; conditions: in vivo, other
Allium cepa [8] = assay: Phytotoxicity in Allium cepa (onion) seedling assessed as total fresh weight at 2.5 kg/ha applied as spray before seed sowing (reference value: 7.71 MT/ha); type: organism-based; conditions: in vivo, other
Cyperus rotundus [9] = assay: Herbicidal activity against Cyperus rotundus assessed as total dry weight at 2.5 kg/ha applied as spray before seed sowing (reference value: 4.1 MT/ha); type: functional
Cyperus rotundus [10] = assay: Herbicidal activity against Cyperus rotundus assessed as total fresh weight at 2.5 kg/ha applied as spray before seed sowing (reference value: 23.6 MT/ha); type: functional
Chenopodiastrum murale [11] = assay: Herbicidal activity against Chenopodium murale assessed as total fresh weight at 2.5 kg/ha applied as spray before seed sowing (reference value: 23.6 MT/ha); type: functional
Chenopodiastrum murale [12] = assay: Herbicidal activity against Chenopodium murale assessed as total dry weight at 2.5 kg/ha applied as spray before seed sowing (reference value: 4.1 MT/ha); type: functional
Malva sylvestris [13] = assay: Herbicidal activity against Malva sylvestris assessed as total fresh weight at 2.5 kg/ha applied as spray before seed sowing (reference value: 23.6 MT/ha); type: functional
Malva sylvestris [14] = assay: Herbicidal activity against Malva sylvestris assessed as total dry weight at 2.5 kg/ha applied as spray before seed sowing (reference value: 4.1 MT/ha); type: functional
Cyperus rotundus [15] = assay: Herbicidal activity against Cyperus rotundus assessed as total dry weight at 1.5 kg/ha applied as spray before seed sowing (reference value: 4.1 MT/ha); type: functional; conditions: pooled result: one value given for 3 cell lines, strains, targets or settings
Allium cepa [16] = assay: Phytotoxicity in Allium cepa (onion) seedling assessed as total fresh weight at 1.5 kg/ha applied as spray before seed sowing (reference value: 7.71 MT/ha); type: organism-based; conditions: in vivo, other
Cyperus rotundus [17] = assay: Herbicidal activity against Cyperus rotundus assessed as total fresh weight at 1.5 kg/ha applied as spray before seed sowing (reference value: 23.6 MT/ha); type: functional; conditions: pooled result: one value given for 3 cell lines, strains, targets or settings
Malva sylvestris [18] = assay: Herbicidal activity against Malva sylvestris assessed as decrease in total dry weight at 0.02 kg/ha applied as spray during post-emergence relative to weed-infested control; type: functional; set-up: scale not given: the % may be the effect or the level left
Chenopodiastrum murale [19] = assay: Herbicidal activity against Chenopodium murale assessed as total fresh weight at 0.02 kg/ha applied as spray during postemergence (reference value: 23.6 MT/ha); type: functional
Allium cepa [20] = assay: Phytotoxicity in Allium cepa (onion) seedling assessed as total fresh weight at 0.02 kg/ha applied as spray during postemergence (reference value: 7.71 MT/ha); type: organism-based; conditions: in vivo, other
Cyperus rotundus [21] = assay: Herbicidal activity against Cyperus rotundus assessed as decrease in total dry weight at 0.02 kg/ha applied as spray during post-emergence relative to weed-infested control; type: functional; set-up: scale not given: the % may be the effect or the level left
Cyperus rotundus [22] = assay: Herbicidal activity against Cyperus rotundus assessed as total fresh weight at 0.02 kg/ha applied as spray during post-emergence (reference value: 23.6 MT/ha); type: functional
Chenopodiastrum murale [23] = assay: Herbicidal activity against Chenopodium murale assessed as decrease in total dry weight at 0.02 kg/ha applied as spray during postemergence relative to weed-infested control; type: functional; set-up: scale not given: the % may be the effect or the level left
Malva sylvestris [24] = assay: Herbicidal activity against Malva sylvestris assessed as total fresh weight at 0.02 kg/ha applied as spray during post-emergence (reference value: 23.6 MT/ha); type: functional

## CCOC(=O)C(C)Oc1ccc(Oc2cnc3cc(Cl)ccc3n2)cc1 (centres undefined) [QUIZALOFOP ETHYL ESTER]
Malva sylvestris [1]
  Activity: 10.7 MT/ha
Malva sylvestris [2]
  Activity: 2.52 MT/ha
Chenopodiastrum murale [3]
  Activity: 2.52 MT/ha
Cyperus rotundus [4]
  Activity: 10.7 MT/ha
Cyperus rotundus [5]
  Activity: 2.52 MT/ha
Chenopodiastrum murale [6]
  Activity: 10.7 MT/ha
Allium cepa [7]
  Activity: 10.11 MT/ha

## CSc1nc(NC(C)C)nc(NC(C)C)n1 [PROMETRYN]
Allium cepa [8]
  Activity: 3.67 MT/ha
Cyperus rotundus [9]
  Activity: 3.81 MT/ha
Cyperus rotundus [10]
  Activity: 19.8 MT/ha
Chenopodiastrum murale [11]
  Activity: 19.8 MT/ha
Chenopodiastrum murale [12]
  Activity: 3.81 MT/ha
Malva sylvestris [13]
  Activity: 19.8 MT/ha
Malva sylvestris [14]
  Activity: 3.81 MT/ha

## CCC(CC)Nc1c([N+](=O)[O-])cc(C)c(C)c1[N+](=O)[O-] [PENDIMETHALIN]
Cyperus rotundus [15]
  Activity: 2.9 MT/ha
Allium cepa [16]
  Activity: 7.42 MT/ha
Cyperus rotundus [17]
  Activity: 17.5 MT/ha

## C[n+]1ccc(-c2cc[n+](C)cc2)cc1 [PARAQUAT]
Malva sylvestris [18]
  Activity: 60%
Chenopodiastrum murale [19]
  Activity: 8.2 MT/ha
Allium cepa [20]
  Activity: 14.11 MT/ha
Cyperus rotundus [21]
  Activity: 60%
Cyperus rotundus [22]
  Activity: 8.2 MT/ha
Chenopodiastrum murale [23]
  Activity: 60%
Malva sylvestris [24]
  Activity: 8.2 MT/ha
